Assay results: patent US20260138970A1, “MODULATORS OF THE CALCIUM SIGNALING CASCADE” (FONDAZIONE TELETHON ETS, priority 2022, published 2026)

Assays:
[1] = test system: FRT cells; test: Fluo-4 Ca2+ mobilization assay in parental (null) FRT cells; type: cell-based, rat; conditions: for direct Ca2+ mobilization in the absence of UTP (Fluo-4): acute addition, Eact 5 μM, FIG. 2B; for direct Ca2+ mobilization in the absence of UTP (Fluo-4) / potentiation of UTP-dependent Ca2+ increase (Fluo-4): compounds 10 μM; for potentiation of UTP-dependent Ca2+ increase (Fluo-4): FIG. 2A
Description: Experiments were performed using the microplate reader described for the HS-YFP assay. FRT and HEK293 cells were cultured until confluence in 96-well microplates (3603, Corning). Cells were washed 2 times with PBS (150 μl/wash) and then loaded for 1 h at 37° C. with 5 μM Fluo-4/AM (Thermo Fisher Scientific; catalog number: F23917) in PBS containing 10 mM glucose, 0.5 mM sulfinpyrazone, and 1% fetal bovine serum. […] Each well was assayed individually. Fluo-4 fluorescence (500 nm excitation, 535 nm emission) was detected every 200 ms for 16-40 s. Two seconds after the start of fluorescence recording, the reader automatically injected 165 μl of a modified PBS containing 136 mM KCl instead of NaCl. This solution also contained 10 mM glucose, 0.5 mM sulfinpyrazone, and UTP or SLIGR-NH2 (CAS #171436-38-7) at a final concentration that depended on the specific cell type. For UTP we used: 0.25 μM for FRT; 1 μM for HEKR2; 5 μM for HEK3XKO, HEKR1, and HEKR3. For SLIGR-NH2 we used: 10 μM for HEKR1; 4 μM for HEKR2. These concentrations were chosen to elicit ˜20% of maximal effect based on UTP and SLIGR-NH2 dose-response relationships. The lower agonist concentrations used for HEKR2 cells, compared to HEKR1 cells, are consistent with the higher affinity of ITPR2 for IP3 (16). The Fluo-4 fluorescence increase was quantified using a procedure compiled in Microsoft Excel after background subtraction and normalization for the initial value measured before UTP addition.
In a further experimental setting, experiments were performed using as above the FLUOstar Omega (BMG Labtech, Offenburg, Germany) microplate reader equipped with syringe pumps and optical excitation/emission filters optimized for yellow fluorescent protein (YFP) fluorescence (ET500/20× and ET535/30m, respectively; Chroma Technology Corporation). FRT and Chem-1 cells were cultured until confluence in 96-well microplates (cc3603, Corning). Cells were washed 2 times with PBS (150 μl/wash) and then loaded for 1 h at 37° C. with 5 μM Fluo-4/AM (Thermo Fisher Scientific; catalog number: F23917) in PBS containing 10 mM glucose, 0.5 mM sulfinpyrazone, and 1% fetal bovine serum. […] Each well was assayed individually. Fluo-4 fluorescence (500 nm excitation, 535 nm emission) was detected every 200 ms for 16-40 s. Two seconds after the start of fluorescence recording, the reader automatically injected 165 μl of a modified PBS containing 136 mM KCl instead of NaCl. This solution also contained, in addition to 10 mM glucose and 0.5 mM sulfinpyrazone, the following agonists: UTP (U6625, Merck) or CCK8s (23371, Cayman Chemical). The Fluo-4 fluorescence increase was quantified using a procedure compiled in Microsoft Excel after background subtraction and normalization for the initial value measured before UTP or CCK8s addition.

[2] = molecular target: T1, T267M ITPR1 (Homo sapiens, UniProt Q14643, T267M); test: Fluo-4 Ca2+ assay, UTP, HEK293 cells with inducible T267M ITPR1; type: cell-based; conditions: UTP 5 μM; compound 10 μM; tetracycline-induced; FIG. 6B-C
T1 construct: expressed in transfected cells
T1 sequence (Q14643 whole entry T267M): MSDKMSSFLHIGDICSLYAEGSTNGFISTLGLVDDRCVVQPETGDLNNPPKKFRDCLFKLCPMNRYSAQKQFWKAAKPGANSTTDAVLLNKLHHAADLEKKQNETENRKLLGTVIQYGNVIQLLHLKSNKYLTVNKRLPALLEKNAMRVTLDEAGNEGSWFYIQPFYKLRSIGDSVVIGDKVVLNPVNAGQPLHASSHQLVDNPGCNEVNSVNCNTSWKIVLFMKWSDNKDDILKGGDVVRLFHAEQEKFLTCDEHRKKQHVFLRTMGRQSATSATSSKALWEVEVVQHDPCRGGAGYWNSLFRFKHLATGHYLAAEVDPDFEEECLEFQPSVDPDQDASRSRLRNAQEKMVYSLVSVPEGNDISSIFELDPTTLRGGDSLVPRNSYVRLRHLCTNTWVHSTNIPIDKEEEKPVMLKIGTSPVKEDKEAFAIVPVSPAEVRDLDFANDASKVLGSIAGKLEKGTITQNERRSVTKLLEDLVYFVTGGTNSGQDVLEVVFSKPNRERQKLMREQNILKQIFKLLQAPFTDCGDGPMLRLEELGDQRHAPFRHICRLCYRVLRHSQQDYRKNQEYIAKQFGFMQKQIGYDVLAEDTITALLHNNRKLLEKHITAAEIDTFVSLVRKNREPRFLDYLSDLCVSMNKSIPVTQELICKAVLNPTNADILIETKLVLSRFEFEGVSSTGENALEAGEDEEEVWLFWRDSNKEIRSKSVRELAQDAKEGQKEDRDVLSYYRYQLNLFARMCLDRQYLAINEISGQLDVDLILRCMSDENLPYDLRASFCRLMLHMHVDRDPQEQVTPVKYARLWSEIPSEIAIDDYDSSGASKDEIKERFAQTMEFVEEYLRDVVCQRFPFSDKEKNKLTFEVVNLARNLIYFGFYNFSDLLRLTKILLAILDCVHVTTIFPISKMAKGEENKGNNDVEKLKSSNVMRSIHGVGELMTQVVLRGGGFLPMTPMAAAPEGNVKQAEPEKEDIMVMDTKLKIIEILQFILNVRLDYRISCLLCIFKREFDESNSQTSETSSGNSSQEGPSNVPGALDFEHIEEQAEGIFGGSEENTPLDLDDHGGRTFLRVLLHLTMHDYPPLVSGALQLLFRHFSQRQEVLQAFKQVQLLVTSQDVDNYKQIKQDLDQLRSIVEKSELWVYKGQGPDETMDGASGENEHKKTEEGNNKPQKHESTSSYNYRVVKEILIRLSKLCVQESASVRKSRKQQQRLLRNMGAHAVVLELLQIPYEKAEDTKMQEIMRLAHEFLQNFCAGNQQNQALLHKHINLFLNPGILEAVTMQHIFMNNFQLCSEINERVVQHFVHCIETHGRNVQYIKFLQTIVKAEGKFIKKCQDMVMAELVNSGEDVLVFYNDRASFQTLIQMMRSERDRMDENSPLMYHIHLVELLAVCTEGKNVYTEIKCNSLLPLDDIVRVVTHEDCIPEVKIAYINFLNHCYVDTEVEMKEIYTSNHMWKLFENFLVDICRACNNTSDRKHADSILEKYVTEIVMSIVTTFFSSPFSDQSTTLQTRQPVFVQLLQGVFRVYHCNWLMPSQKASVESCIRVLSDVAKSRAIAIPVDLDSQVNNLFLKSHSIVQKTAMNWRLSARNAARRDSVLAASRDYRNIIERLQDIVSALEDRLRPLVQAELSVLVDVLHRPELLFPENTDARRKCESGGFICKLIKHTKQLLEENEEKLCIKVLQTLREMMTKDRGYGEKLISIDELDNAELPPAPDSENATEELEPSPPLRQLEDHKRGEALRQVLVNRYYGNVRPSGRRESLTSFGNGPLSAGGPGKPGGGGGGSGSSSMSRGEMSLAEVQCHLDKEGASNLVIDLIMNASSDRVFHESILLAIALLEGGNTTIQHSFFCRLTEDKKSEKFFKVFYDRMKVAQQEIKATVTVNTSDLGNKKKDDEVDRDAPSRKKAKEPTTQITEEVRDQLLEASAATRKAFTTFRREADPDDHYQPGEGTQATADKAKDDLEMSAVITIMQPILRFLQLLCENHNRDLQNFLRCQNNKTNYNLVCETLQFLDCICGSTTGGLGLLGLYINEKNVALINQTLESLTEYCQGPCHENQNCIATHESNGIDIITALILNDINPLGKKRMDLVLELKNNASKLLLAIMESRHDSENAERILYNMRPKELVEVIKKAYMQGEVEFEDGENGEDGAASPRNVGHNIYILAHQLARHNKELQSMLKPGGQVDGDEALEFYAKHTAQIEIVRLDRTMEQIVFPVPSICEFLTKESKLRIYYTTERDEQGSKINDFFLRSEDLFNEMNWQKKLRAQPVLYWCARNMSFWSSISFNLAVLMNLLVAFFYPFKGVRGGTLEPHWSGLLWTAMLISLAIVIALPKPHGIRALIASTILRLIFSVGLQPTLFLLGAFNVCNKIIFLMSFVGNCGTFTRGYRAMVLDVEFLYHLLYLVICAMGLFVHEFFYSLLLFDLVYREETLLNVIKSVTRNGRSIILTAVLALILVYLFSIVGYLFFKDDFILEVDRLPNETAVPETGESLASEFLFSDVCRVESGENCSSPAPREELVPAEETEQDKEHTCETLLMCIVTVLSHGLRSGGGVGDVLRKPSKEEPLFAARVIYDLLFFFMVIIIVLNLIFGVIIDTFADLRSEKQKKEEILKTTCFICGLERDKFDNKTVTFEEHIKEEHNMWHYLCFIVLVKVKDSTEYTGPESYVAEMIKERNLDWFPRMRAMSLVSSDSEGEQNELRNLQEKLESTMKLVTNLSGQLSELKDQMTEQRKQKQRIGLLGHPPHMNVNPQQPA
Description: HEK293 cells stably transfected with tetracycline-inducible expression of wild type or mutant (R269W or T267M) ITPR1, kindly provided by Prof. S. R. Wayne Chen (University of Calgary; ref. 14), were cultured in a mixture of Dulbecco's Modified Eagle Medium (DMEM, high glucose version) and Ham's F12 (1:1) and supplemented with 10% fetal bovine serum, 2 mM L-glutamine, 100 U/ml penicillin and 100 μg/ml streptomycin. Cells were selected with 0.5 mg/ml hygromycin B and induced with 1 μg/ml tetracycline.
Experiments were performed using the microplate reader described for the HS-YFP assay. FRT and HEK293 cells were cultured until confluence in 96-well microplates (3603, Corning). Cells were washed 2 times with PBS (150 μl/wash) and then loaded for 1 h at 37° C. with 5 μM Fluo-4/AM (Thermo Fisher Scientific; catalog number: F23917) in PBS containing 10 mM glucose, 0.5 mM sulfinpyrazone, and 1% fetal bovine serum. After loading, cells were washed 2 times with PBS-glucose-sulfinpyrazone (150 μl/wash) and incubated for 20 min at 37° C. with 60 μl of PBS plus 10 mM glucose and 0.5 mM sulfinpyrazone containing compounds of interest at 10 μM final concentration or vehicle. Each well was assayed individually. Fluo-4 fluorescence (500 nm excitation, 535 nm emission) was detected every 200 ms for 16-40 s. Two seconds after the start of fluorescence recording, the reader automatically injected 165 μl of a modified PBS containing 136 mM KCl instead of NaCl. This solution also contained 10 mM glucose, 0.5 mM sulfinpyrazone, and UTP or SLIGR-NH2 (CAS #171436-38-7) at a final concentration that depended on the specific cell type. For UTP we used: 0.25 μM for FRT; 1 μM for HEKR2; 5 μM for HEK3XKO, HEKR1, and HEKR3. For SLIGR-NH2 we used: 10 μM for HEKR1; 4 μM for HEKR2. These concentrations were chosen to elicit ˜20% of maximal effect based on UTP and SLIGR-NH2 dose-response relationships. […] The Fluo-4 fluorescence increase was quantified using a procedure compiled in Microsoft Excel after background subtraction and normalization for the initial value measured before UTP addition.

SMILES | direct Ca2+ mobilization in the absence of UTP (Fluo-4) [1] | potentiation of UTP-dependent Ca2+ increase (Fluo-4) ([1]; UTP 0.25 μM) | potentiation of Ca2+ mobilization elicited by UTP, T267M mutant [2] | potentiation of the Ca2+ increase elicited by UTP, multiple concentrations ([1]; UTP 0.25 μM, compounds 1-80 μM, vs vehicle (DMSO), FIG. 8)
OCc1ccccc1CN(Cc1ccnc(N2CCCC2)n1)c1ccc(F)cc1 [ARN4550, [2-[[4-Fluoro-N-[(2-pyrrolidin-1-ylpyrimidin-4-yl)methyl]anilino]methyl]phenyl]methanol] | No effect | able to potentiate | also effective although less than ARN11391 | 
CCc1cc(-c2cc(NCCCOc3ccccc3C)nc(N)n2)n(C)n1 [ARN7149, 6-(3-Ethyl-1-methyl-1H-pyrazol-5-yl)-N^4-(3-(o-tolyloxy)propyl)pyrimidine-2,4-diamine] | No effect | able to potentiate | also effective although less than ARN11391 | 
CCn1nc2c(c1C(=O)Nc1ccccc1OCC1CCCCO1)CCCC2 (stereo not shown) [ARN11391, 2-Ethyl-N-[2-(tetrahydropyran-2-ylmethoxy)phenyl]-4,5,6,7-tetrahydroindazole-3-carboxamide] | No effect | able to potentiate | marked potentiation | dose-dependent potentiation
